Results reported in patent US20250034186A1, “ANTIVIRAL COMPOUNDS” (priority 2020, published 2025).

Columns and labels:
[1] = in vitro; assay type: in vitro ADME; conditions: plasma, 37° C., up to 4 h
Experimental: For plasma stability, the compounds were incubated at 2 μM in cynomolgus monkey or human plasma for up to 4 h at 37° C. At desired time points, an aliquot from the incubation was quenched by addition of 9 volumes of 100% acetonitrile supplemented with internal standard. Following the last collection, samples were centrifuged at 3000 g for 30 min and supernatants were transferred to a new plate containing an equal volume of water for analysis by liquid chromatography coupled to triple quadrupole mass spectrometry (LC-MS/MS). Data (analyte to internal standard peak area ratio) were plotted on a semi log scale and fitted using an exponential fit. The half-life (T1/2) was determined assuming first order kinetics.

[2] = test system: HRV16; test: HRV16 HeLa EC50; assay type: cell-based, human rhinovirus; conditions: Human rhinovirus sp., HRV16; H1-HeLa cells, 96 h, 33° C.
Experimental: H1-HeLa cells, cultured in complete DMEM medium containing 10% heat-inactivated FBS and 1% Penicillin/Streptomycin, were seeded in 96 well plates at 3000 cells/well one day prior to compound dosing and infection. The antiviral activity of each compound was measured in triplicate. Compounds were added directly to the cell cultures in serial 3-fold dilutions using the HP300 digital dispenser (Hewlett Packard, Palo Alto, CA) immediately prior to infection. The plates were transferred to BSL-2 containment and the appropriate dilution of virus stock, previously determined by titration and prepared in cell culture media, was added to test plates containing cells and serially diluted compounds. Each plate included 6 wells of infected untreated cells and 6 wells of uninfected cells that served as 0% and 100% virus inhibition control, respectively. Following the infection, test plates were incubated for 96 h in a tissue culture incubator set to 33° C./5% CO2. Following incubation, the H1-HeLa cells were removed from incubation and allowed to equilibrate to 25° C. Cell viability was determined by removing 100 μL of culture medium and adding 100 μL of Cell-Titer Glo viability reagent. The mixtures were incubated on a shaker for 10 minutes at 25° C., and the luminescence signal was quantified on an Envision luminescence plate reader.

[3] = test system: RSV strain A2; test: RSV HEp-2 EC50, infectious cytopathic cell protection assay; assay type: cell-based; conditions: human respiratory syncytial virus, 96 h; RSV A2 in HEp-2 cells, 4 days, Cell TiterGlo
Experimental: Antiviral activity against RSV is determined using an infectious cytopathic cell protection assay in HEp-2 cells. In this assay, compounds inhibiting viral infection and/or replication produce a cytoprotective effect against the virus-induced cell killing that can be quantified using a cell viability reagent. The techniques used here are novel adaptations of methods described in published literature (Chapman et al., Antimicrob Agents Chemother. 2007, 51(9):3346-53.).
HEp-2 cells are obtained from ATCC (Manassas, VI) and maintained in MEM media supplemented with 10% fetal bovine serum and penicillin/streptomycin. Cells are passaged twice a week and kept at subconfluent stage. Commercial stock of RSV strain A2 (Advanced Biotechnologies, Columbia, MD) is titered before compound testing to determine the appropriate dilution of the virus stock that generates desirable cytopathic effect in HEp-2 cells.
For antiviral tests, HEp-2 cells are grown in large cell culture flasks to near confluency but not fully so. The compounds to be tested are prediluted in DMSO in 384-well compound dilution plates, either in an 8 or 40 sample per plate standardized dose response format. 3-fold serial dilution increments of each test compound are prepared in the plates and test samples are transferred via acoustic transfer apparatus (Echo, Labcyte) at 100 nL per well into cell culture assay 384-well plates. Each compound dilution is transferred in single or quadruplicate samples into dry assay plates, which are stored until assay is ready to go. The positive and negative controls are laid out in opposite on ends of the plate in vertical blocks (1 column).
Subsequently, an infectious mixture is prepared using an appropriate dilution of virus stock previously determined by titration with cells at a density of 50,000/mL and 20 μL/well is added to test plates w/compounds via automation (uFlow, Biotek). Each plate includes negative and positive controls (16 replicates each) to create 0% and 100% virus inhibition standards, respectively. Following the infection with RSV, testing plates are incubated for 4 days in a 37° C. cell culture incubator. After the incubation, a cell viability reagent, Cell TiterGlo (Promega, Madison, WI) is added to the assay plates, which are incubated briefly, and a luminescent readout is measured (Envision, Perkin Elmer) in all the assay plates. The RSV-induced cytopathic effect, percentage inhibition, is determined from the levels of remaining cell viability. […] Various potent anti-RSV tool compounds are used as positive controls for antiviral activity.

[4] = Stability assay in human hepatic S9 fractions; assay type: in vitro ADME; conditions: 37° C., NADPH and UDPGA, read-out: Hum HepS9 t1/2
Experimental: (§1) For S9 stability, the compounds were incubated at 2 μM in cynomolgus monkey or human hepatic S9 fractions for up to 90 min at 37° C. in the presence of NADPH and UDPGA (Phase I and Phase II cofactor, Sigma-Aldrich). At desired time points following compound addition, samples were quenched with 9 volumes of an aqueous solution containing internal standard, 50% acetonitrile and 25% methanol. Sample plates were centrifuged at 3000 g for 30 min, and 10 μL of the resulting solution was analyzed by LC-MS/MS. Data (analyte to internal standard peak area ratio) were plotted on a semi log scale and fitted using an exponential fit. The half-life (T1/2) was determined assuming first order kinetics.

[5] = Stability assay in cynomolgus monkey hepatic S9 fractions; assay type: in vitro ADME; conditions: 37° C., NADPH and UDPGA, read-out: Cyno HepS9 t1/2
Experimental: as §1

[6] = test system: RSV A2; test: RSV NHBE EC50, RSV A2 antiviral assay; assay type: cell-based; conditions: human respiratory syncytial virus, 96 h; RSV A2 in NHBE cells, 4 days
Experimental: Normal human bronchial epithelial (NHBE) cells were purchased from Lonza (Walkersville, MD, Cat #CC-2540) and cultured in Bronchial Epithelial Growth Media (BEGM) (Lonza, Walkersville, MD, Cat #CC-3170). The cells were passaged 1-2 times per week to maintain <80% confluency. The NHBE cells were discarded after 6 passages in culture.
To conduct the RSV A2 antiviral assay, NHBE cells were plated in 96-well plates at a density of 7,500 cells per well in BEGM and allowed to attach overnight at 37° C. Following attachment, 100 μL of cell culture media was removed and 3-fold serially diluted compound was added using a Hewlett-Packard D300 Digital Dispenser. The final concentration of DMSO was normalized to 0.05%. Following compound addition, the NHBE cells were infected by the addition of 100 μL of RSV A2 at a titer of 1×10^4.5 tissue culture infectious doses/mL in BEGM and then incubated at 37° C. for 4 days. The NHBE cells were then allowed to equilibrate to 25° C. and cell viability was determined by removing 100 μL of culture medium and adding 100 μL of Cell-Titer Glo viability reagent. The mixtures were incubated for 10 minutes at 25° C., and the luminescence signal was quantified on an Envision luminescence plate reader.

CCC(CC)COC(=O)[C@H](C)N[P@@](=O)(OC[C@@]1(C#N)O[C@@H](c2ccc3c(N)ncnn23)[C@H](O)[C@@H]1O)Oc1ccccc1 (single isomer, unassigned) [Compound 7]
half-life at 2 μM ([1]; cynomolgus monkey, read-out: Cyno Plasma t1/2): 2.97 h
half-life at 2 μM ([1]; human, read-out: Hum Plasma t1/2): 3.88 h
EC50 [2]: 183 nM
EC50 [3]: 124 nM
half-life at 2 μM [4]: 6 min
half-life at 2 μM [5]: 2 min
EC50 [6]: 91 nM
